Experimental data reported in patent publication US10258692B2, “Oral pharmaceutical formulation of BCS class III molecules” (ETHYPHARM, priority 2012, dated 2019).
Converted amounts (≈) assume the structure as drawn. Read-outs that look alike come from different tables or passages of the source.

Key:
[1] = Permeability assay on Caco-2 cells (apparent permeability); format: in vitro ADME, human; conditions: human
Text: (§1) The Caco-2 cells are derived from the culture of human cells of cancerous origin capable of differentiating in the presence of a suitable culture medium (Pontier, 1997-1998). Their properties are a function of the number of subcultures to which they are subjected. […] The brush-border is differentiated and developed with very tight junctions of 10 to 50 Å (narrower than those of the small intestine). From a biochemical viewpoint, Caco-2 cells also express the enzymes of the enterocytes. In addition, numerous transporters are present but their expression is lower than the levels found in vivo and the P-gp efflux pump is over-expressed which may underestimate absorption compared with in vivo.
(§2) The Caco-2 cells were placed in culture and differentiated over 21 to 30 days. They were subjected to a number of subcultures of less than 110. The culture medium was DMEM (Dulbecco's Modified Eagle Medium) supplemented with inactivated 10% foetal calf serum, with 1% non-essential amino acids and antibiotics.
(§3) The Caco-2 cells allowed evaluation of the potential of eight formulas given in Tables 5a, 5b, 5c and 5d, for improvement in the apparent permeability of baclofen. The dilutions are those chosen by the subcontractor as a function of baclofen concentration measured by the assay technique and as a function of the […] non-toxic concentration given by preliminary toxicity studies.
(§4) Samples were taken after the placing the test specimen in the apical medium: at T5 minutes and T125 minutes in the donor compartment and at T65 minutes and T125 minutes in the receiver compartment. […]
(§5) The apparent permeability of baclofen and the recovery ratio were calculated as follows: Papp=[ΔQ/(Δt×A)]/C0 where Papp=apparent permeability (cm·s^−1) • ΔQ=difference in amount of baclofen measured between the two samplings • Δt=time interval between the two samplings • A=exposure surface area (cm^2) • C0=initial concentration deposited in the donor compartment.
(§6) Each assay was performed three times. For the validity of the assay, the permeability of a reference compound was also measured as positive control. […]

Caco-2 cells [2] = experiment: Lucifer Yellow test (paracellular transport, tight junctions); format: cell-based, human
Text: Lucifer yellow (LY) is a marker of paracellular transport (Buyukorturk, et al., 2010). Its measurement in the receiver compartment during the permeability assay allows observation of the opening of the tight junctions. Measurement can also be performed after the assay to evaluate cell integrity (Nollevaux, et al., 2006). The apparent permeability of Lucifer Yellow under normal conditions is […] (Oroxcell, 2011).
Throughout the assays the crossing of Lucifer Yellow from the apical to the basolateral compartment, a marker of paracellular transport, was also evaluated. 200 μM of Lucifer Yellow was co-incubated with the test compound and its permeability evaluated in the same manner as for the latter. Concentrations were measured by fluorescence in both compartments at the start and at the end of the assay.

Caco-2 cells [3] = experiment: Permeability assay on Caco-2 cells (apparent permeability); format: in vitro ADME, human; conditions: Caco-2, apical pH 6.8 to basolateral pH 7.4; listed as non-formulated baclofen
Text: as §1, §2, §3, §4, §5, §6

[4] = Baclofen solubility assays (visual method); format: physicochemical; conditions: for solubility at 24 h: thermodynamic from solid
Protocol: Beforehand it is important to determine the solubility of the active ingredient in the excipients to be evaluated. For the purpose of cell assays, it is important that the active ingredient should be in molecular form to obtain cross-membrane transport. Solubility was determined via visual method by adding exactly weighed quantities of baclofen to the selected excipients, after being left under agitation for 24 h. First the solubility of baclofen at ambient temperature in Labrasol®, Miglyol® 810 and Captex® 355 was determined. The solubility of baclofen in Gélucire® 50/13 was determined after melting the excipient at a temperature higher than 50° C. and placing thereof in a thermostat-controlled oven at 60° C. At a second step, to increase the solubility of baclofen in an aqueous medium, this solubility was determined in an acidified solution of 0.01 M fumaric acid.
The solubility values indicated in Table 7 below were determined in relation to visual observation of particles in the media.

[5] = Physicochemical characteristics of baclofen (internal report)
Protocol: Baclofen (FIG. 1) is a BCS class III molecule.
The transport mechanism of baclofen (Merino, et al., 1989) is active transport by means of transporters but these are saturated at high dose. Not knowing the transporter composition of the Caco-2 cells, it is sought to have a high concentration of baclofen in the formulas so that the transporters that are present are saturated. Therefore only the increase in paracellular transport was evaluated. The saturation concentration of baclofen in water is 3 mg/ml (internal pre-formulation report). However, its solubility is highly dependent on pH as indicated by the amine and carboxylic functions present on the molecule. Therefore the addition of 0.01 M fumaric acid shown to be compatible with baclofen by the internal pre-formulation report, allows the solubility of baclofen to be increased twofold to 6 mg/ml. The pH is then 3.88.

[6] = Benet, et al., 2011; cited from earlier work

COCCc1ccc(OCC(O)CNC(C)C)cc1 (stereo not drawn) [metoprolol]
Papp A→B at 125 min, 20 μM ([1]; Caco-2, 20 μM metoprolol, positive control): > 6 ×10⁻⁶ cm/s
opening of the tight junctions, in words (Caco-2 cells [2]): lack of effect

NCC(CC(=O)O)c1ccc(Cl)cc1 (stereo not drawn) [baclofen, Baclofen]
apparent permeability of baclofen (Caco-2 cells [3]): lower than 0.5×10^−6 cm/s
Papp A→B at 125 min ([1]; Caco-2, Caco-2, apical pH 6.8 to basolateral pH 7.4, read-out: apparent permeability of baclofen): < 0.3 ×10⁻⁶ cm/s
pH of the baclofen solution ([4]; 6 mg/ml baclofen in 0.01 M fumaric acid): 3.88
solubility at 24 h ([4]; 0.01 M fumaric acid aqueous solution, pH 3.88, aqueous buffer, in 0.01M fumaric acid aqueous medium, ambient, read-out: Solubility of baclofen): 6000 to 7000 µg/mL (≈ 28.1 to 32.8 mM)
solubility at 24 h ([4]; Gélucire 50/13 (molten), oil or lipid, in Gélucire ® 50/13, 60° C., read-out: Solubility of baclofen): 500 to 1000 µg/mL (≈ 2.34 to 4.68 mM)
solubility in words ([4]; aqueous medium): soluble
solubility at 24 h ([4]; liquid absorption enhancers, oil or lipid, read-out: solubility of the active ingredient in the liquid absorption enhancers): < 1000 µg/mL
solubility in words ([4]; oil excipients): practically insoluble
solubility at 24 h ([4]; oil or lipid, in Captex ® 355, ambient, read-out: Solubility of baclofen): < 100 µg/mL
solubility at 24 h ([4]; oil or lipid, in Labrasol ®, ambient, read-out: Solubility of baclofen): 200 to 400 µg/mL (≈ 0.936 to 1.87 mM)
solubility at 24 h ([4]; oil or lipid, in Miglyol ® 810, ambient, read-out: Solubility of baclofen): < 100 µg/mL
logP [5]: -1
pH of a saturated solution [5]: 6.5
pKa1 [5]: pKa1 = 3.87
pKa2 [5]: pKa2 = 9.62
Solubility ([5]; 0.1N HCl, 0.1N NaOH): Soluble: 0.1N HCl, 0.1N NaOH
Solubility ([5]; Ethanol, Methanol): Very slightly soluble: Ethanol, Methanol
Solubility ([5]; water, read-out: Solubility (saturation concentration) in water): 3000 µg/mL (≈ 14 mM)
log P [6]: −0.96
